The results in this text go back to US6818663B2, “Diaminothiazoles” (Hoffmann-La Roches, priority 2002, dated 2004).

Usually IC50 stands for the concentration at which inhibition is half-maximal.

Each structure is given as a SMILES string.

The target of one test is human cyclin E-CDK2 (Homo sapiens, UniProt P24941). Description: FlashPlate kinase assay, cyclin E-CDK2, Rb substrate. The format is biochemical. To be noted: recombinant cyclin E-CDK2, Rb phosphorylation, 1 μM ATP. In outline: (§1)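 Recombinant human cyclin–CDK complexes, co-expressed in insect cells, phosphorylated His-tagged Rb (aa 386-928) coated on FlashPlates at 10 μg/ml. Reaction used 1 μM ATP plus 4 nM ^33P-ATP and 20 mM MgCl2 for 30 min at room temperature. % inhibition came from scintillation counts against no-enzyme and no-compound wells, and IC50 was the concentration halving radiolabel incorporation.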

The target in the next test is human cyclin D1-CDK4 (Homo sapiens, UniProt P11802). Description: FlashPlate kinase assay, cyclin D1-CDK4, Rb substrate. The format is biochemical. As to conditions: recombinant cyclin D1-CDK4, Rb phosphorylation, 1 μM ATP. In outline: as §1
Test [1] relates to HCT116, a colorectal carcinoma cell line. Description: Tetrazolium dye proliferation assay (MTT assay). The format is cell-based. To be noted: Homo sapiens, HCT-116, HCT116 cells, inhibition of cell proliferation. As to the method: Proliferation was evaluated by the tetrazolium dye assay according to the procedure of Denizot and Lang (Denizot, F. and Lang, R. J Immunol Methods 1986, 89, 271-277). The cell line used was HCT116, a colorectal carcinoma cell line obtained from the American Type Cell Culture Collection (ATCC; Rockville, Md.). The cells were grown in McCoy's 5A medium supplemented with 10% FCS and L-glutamine.
Cells were plated at the appropriate seeding density to give logarithmic growth over the course of the assay in a 96-well tissue culture plate. Plates were incubated overnight at 37° C. in a humidified incubator with 5% CO2. The next day, test compounds were serially diluted to four times the final concentration in the appropriate medium containing 1.2% DMSO. One-fourth final volume of each dilution was added in duplicate to the plates containing cells. The same volume of 1.2% DMSO in medium was added to a row of “control wells” such that the final concentration of DMSO in each well was 0.3%. Wells to which no cells were added served as the “blank.” Wells to which no inhibitor was added served as “no inhibitor control.” The plates were) returned to the incubator, and at set time points (determined by their growth curves) plates were analyzed as described below.
3-(4,5-dimethylthiazole-2-yl)-2,5-diphenyl-2H-tetrazolium bromide (thiazolyl blue; MTT; Sigma) was added to each well to yield a final concentration of 1 mg/ml. Plates were returned to the incubator for 2.5-3 hours at 37° C. The MTT-containing medium was removed and the resulting formazan metabolite was solubilized in 100% ethanol with shaking for 15 minutes at room temperature. Absorbance readings were taken in a microtiter plate reader (Dynatech and Molecular Devices plate readers were used interchangeably) at a wavelength of 570 nm with a 650 nm reference. Percent inhibition (% INH) is calculated by subtracting the absorbance of the blank well from all wells, then subtracting the ratio of the average absorbance of each test duplicate (SAVE) by the average of the controls (CAVE) from 1.00. The final number is then multiplied by 100 (% INH=(1.00−SAVE/CAVE)×100). The concentration at which 50% inhibition of cell proliferation is obtained (the IC50) is determined from the linear regression of a plot of the logarithm of the concentration versus percent inhibition.
On the technique in general: Tetrazolium dyes change colour on reduction, which living cells bring about.

In another test the target is human cyclin B-CDK1 (Homo sapiens, UniProt P06493). Description: FlashPlate kinase assay, cyclin B-CDK1, Rb substrate. The format is biochemical. To be noted: recombinant cyclin B-CDK1, Rb phosphorylation, 1 μM ATP. In outline:
as §1

Sequence of human cyclin D1-CDK4 (P11802 whole entry): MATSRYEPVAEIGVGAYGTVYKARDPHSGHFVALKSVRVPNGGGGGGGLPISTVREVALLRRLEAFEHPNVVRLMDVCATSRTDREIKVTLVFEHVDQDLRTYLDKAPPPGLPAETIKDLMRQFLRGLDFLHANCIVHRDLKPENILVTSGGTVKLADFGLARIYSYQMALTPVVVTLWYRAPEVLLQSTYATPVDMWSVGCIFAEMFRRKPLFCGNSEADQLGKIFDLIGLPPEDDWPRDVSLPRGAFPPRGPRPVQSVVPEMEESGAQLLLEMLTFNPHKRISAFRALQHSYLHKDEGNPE
Sequence of human cyclin D1-CDK4 (P24385 whole entry partner): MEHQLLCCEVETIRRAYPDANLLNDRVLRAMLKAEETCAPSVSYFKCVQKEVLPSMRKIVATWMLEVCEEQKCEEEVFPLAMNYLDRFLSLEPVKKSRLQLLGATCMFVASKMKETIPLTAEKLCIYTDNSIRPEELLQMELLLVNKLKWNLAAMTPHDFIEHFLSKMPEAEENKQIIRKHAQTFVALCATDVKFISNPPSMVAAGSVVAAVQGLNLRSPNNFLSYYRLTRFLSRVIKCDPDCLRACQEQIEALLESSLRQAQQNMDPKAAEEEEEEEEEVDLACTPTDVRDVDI
Sequence of human cyclin B-CDK1 (P06493 whole entry): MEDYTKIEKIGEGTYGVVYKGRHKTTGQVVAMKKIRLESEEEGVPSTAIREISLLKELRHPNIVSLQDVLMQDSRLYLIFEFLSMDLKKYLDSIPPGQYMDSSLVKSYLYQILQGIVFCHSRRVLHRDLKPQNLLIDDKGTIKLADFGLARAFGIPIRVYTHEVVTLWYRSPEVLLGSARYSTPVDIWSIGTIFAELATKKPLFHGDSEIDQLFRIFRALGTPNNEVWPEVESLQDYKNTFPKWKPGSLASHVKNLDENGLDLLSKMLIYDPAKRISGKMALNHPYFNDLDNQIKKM
Sequence of human cyclin B-CDK1 (P14635 whole entry partner): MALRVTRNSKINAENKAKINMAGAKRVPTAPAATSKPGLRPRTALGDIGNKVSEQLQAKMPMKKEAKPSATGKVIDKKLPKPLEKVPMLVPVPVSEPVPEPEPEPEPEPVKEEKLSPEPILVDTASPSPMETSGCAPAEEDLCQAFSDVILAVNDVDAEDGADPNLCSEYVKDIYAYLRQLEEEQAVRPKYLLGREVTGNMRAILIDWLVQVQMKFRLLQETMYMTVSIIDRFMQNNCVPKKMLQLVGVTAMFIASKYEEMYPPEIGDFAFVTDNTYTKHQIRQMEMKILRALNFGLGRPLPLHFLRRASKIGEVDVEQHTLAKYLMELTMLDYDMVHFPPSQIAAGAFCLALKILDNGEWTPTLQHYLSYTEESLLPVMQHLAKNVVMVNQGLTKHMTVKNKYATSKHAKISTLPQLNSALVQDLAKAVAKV

As for `CCc1ccc(C(=O)c2sc(Nc3ccc(OCCN4CCCC4)cc3)nc2N)cc1F` [Example 6, [4-Amino-2-[4-(2-pyrrolidin-1-yl-ethoxy)-phenylamino]-thiazol-5-yl]-(4-ethyl-3-fluoro-phenyl)-methanone; Compound With Trifluoroacetic Acid], the IC50 was determined as 3170 nM at human cyclin E-CDK2, 43 nM on human cyclin D1-CDK4, 3700 nM in test [1] and 1130 nM on human cyclin B-CDK1.

In the case of `CCOc1cccc(C(=O)c2sc(Nc3ccc(OCCN4CCCC4)cc3)nc2N)c1` [Example 62, [4-Amino-2-[4-(2-pyrrolidin-1-yl-ethoxy)-phenylamino]-thiazol-5-yl]-(3-ethoxy-phenyl)-methanone], the IC50 was 4440 nM at human cyclin E-CDK2, 33 nM on human cyclin D1-CDK4, 1300 nM in test [1] and 1810 nM on human cyclin B-CDK1.

As for `CN(C)CCOc1ccc(Nc2nc(N)c(C(=O)c3cccc([N+](=O)[O-])c3)s2)cc1` [Example 54, [4-Amino-2-[4-(2-dimethylamino-ethoxy)-phenylamino]-thiazol-5-yl]-(3-nitro-phenyl)-methanone], the IC50 on human cyclin E-CDK2 was 1240 nM; on human cyclin D1-CDK4, 36 nM; in test [1], 1640 nM; at human cyclin B-CDK1, 381 nM.

`CCN1CCC(Oc2ccc(Nc3nc(N)c(C(=O)c4cccc(F)c4)s3)cc2)C1` (stereo not shown) [Example 42, [4-Amino-2-[4-(1-ethyl-pyrrolidin-3-yloxy)-phenylamino]-thiazol-5-yl]-(3-fluoro-phenyl)-methanone]: the IC50 at human cyclin E-CDK2 was determined as 496 nM; on human cyclin D1-CDK4, 57 nM; in test [1] it was 859 nM; on human cyclin B-CDK1, 298 nM.

For `COc1ccc(C(=O)c2sc(Nc3ccc(OC4CCNC4)cc3)nc2N)cc1F` (stereo not shown) [Example 96, [4-Amino-2-[4-(pyrrolidin-3-yloxy)-phenylamino]-thiazol-5-yl]-(3-fluoro-4-methoxy-phenyl)-methanone], the IC50 on human cyclin E-CDK2 came out at 1440 nM; on human cyclin D1-CDK4, 39 nM; in test [1] it was 3290 nM; on human cyclin B-CDK1 it was 668 nM.

Regarding `CCNCCOc1ccc(Nc2nc(N)c(C(=O)c3cccc(CC)c3)s2)cc1` [Example 101, [4-Amino-2-[4-(2-ethylamino-ethoxy)-phenylamino]-thiazol-5-yl]-(3-ethyl-phenyl)-methanone; Compound With Acetic Acid], the IC50 is 1110 nM on human cyclin E-CDK2, 21 nM at human cyclin D1-CDK4, 685 nM in test [1] and 660 nM at human cyclin B-CDK1.

Regarding `Cc1ccc(C(=O)c2sc(Nc3ccc(OC[C@@H]4CCCN4C)cc3)nc2N)cc1F` [Example 114, (S)-[4-Amino-2-[4-(1-methyl-pyrrolidin-2-ylmethoxy)-phenylamino]-thiazol-5-yl]-(3-fluoro-4-methyl-phenyl)-methanone], the IC50 at human cyclin E-CDK2 is 5030 nM; on human cyclin D1-CDK4 it was 63 nM; in test [1] it was 2070 nM; at human cyclin B-CDK1, 850 nM.

For the compound `COc1cccc(C(=O)c2sc(Nc3ccc(OC[C@@H](C)N4CCCC4)cc3)nc2N)c1` [Example 121, [R]-[4-Amino-2-[4-(2-pyrrolidin-1-yl-propoxy)-phenylamino]-thiazol-5-yl]-(3-methoxy-phenyl)-methanone; Compound With Acetic Acid], the IC50 is 4910 nM at human cyclin E-CDK2, 60 nM on human cyclin D1-CDK4, 1060 nM in test [1] and 1790 nM at human cyclin B-CDK1.

As to `CCN1CCCC(Oc2ccc(Nc3nc(N)c(C(=O)c4cccc(C)c4)s3)cc2)C1` (stereo not shown) [Example 78, [4-Amino-2-[4-(1-ethyl-piperidin-3-yloxy)-phenylamino]-thiazol-5-yl]-m-tolyl-methanone], the IC50 at human cyclin E-CDK2 is 1080 nM; at human cyclin D1-CDK4, 41 nM; in test [1], 1510 nM; on human cyclin B-CDK1 it was 806 nM.

Take `CCN1CCCC(Oc2ccc(Nc3nc(N)c(C(=O)c4cccc(F)c4)s3)cc2)C1` (stereo not shown) [Example 43, [4-Amino-2-[4-(1-ethyl-piperidin-3-yloxy)-phenylamino]-thiazol-5-yl]-(3-fluoro-phenyl)-methanone]: the IC50 is 1150 nM on human cyclin E-CDK2, 59 nM on human cyclin D1-CDK4, 760 nM in test [1] and 700 nM at human cyclin B-CDK1.

As for `C[C@H](COc1ccc(Nc2nc(N)c(C(=O)c3cccc(F)c3)s2)cc1)N(C)C` [Example 40, (R)-[4-Amino-2-[4-(2-dimethylamino-propoxy)-phenylamino]-thiazol-5-yl]-(3-fluoro-phenyl)-methanone], the IC50 at human cyclin E-CDK2 worked out at 1010 nM; at human cyclin D1-CDK4, 87 nM; in test [1], 346 nM; on human cyclin B-CDK1, 581 nM.

As to `Nc1nc(Nc2ccc(OC3CCNC3)cc2)sc1C(=O)c1cccc(C2CC2)c1` (stereo not shown) [Example 93, [4-Amino-2-[4-(pyrrolidin-3-yloxy)-phenylamino]-thiazol-5-yl]-(3-cyclopropyl-phenyl)-methanone; Compound With Acetic Acid], the IC50 on human cyclin E-CDK2 was determined as 1200 nM; on human cyclin D1-CDK4, 42 nM; in test [1], 2020 nM; on human cyclin B-CDK1 it was 859 nM.

For the compound `CCNCCOc1ccc(Nc2nc(N)c(C(=O)c3cccc(OC)c3)s2)cc1` [Example 130, [4-Amino-2-[4-(2-ethylamino-ethoxy)-phenylamino]-thiazol-5-yl]-(3-methoxy-phenyl)-methanone], the IC50 at human cyclin E-CDK2 came to 3330 nM; on human cyclin D1-CDK4, 48 nM; in test [1] it was 1390 nM; at human cyclin B-CDK1, 784 nM.

In the case of `CCc1cccc(C(=O)c2sc(Nc3ccc(OCCN4CCCC4)cc3)nc2N)c1` [Example 53, [4-Amino-2-[4-(2-pyrrolidin-1-yl-ethoxy)-phenylamino]-thiazol-5-yl]-(3-ethyl-phenyl)-methanone], the IC50 is 930 nM on human cyclin E-CDK2, 22 nM on human cyclin D1-CDK4, 402 nM in test [1] and 2990 nM on human cyclin B-CDK1.

Consider `CN(C)CCOc1ccc(Nc2nc(N)c(C(=O)c3cccc(Br)c3)s2)cc1` [Example 65, [4-Amino-2-[4-(2-dimethylamino-ethoxy)-phenylamino]-thiazol-5-yl]-(3-bromo-phenyl)-methanone], for which the IC50 stood at 1690 nM on human cyclin E-CDK2, 85 nM at human cyclin D1-CDK4, 3240 nM in test [1] and 1070 nM on human cyclin B-CDK1.

On to `Cc1cccc(C(=O)c2sc(Nc3ccc(OCCN4CCCC4)cc3)nc2N)c1` [Example 51, [4-Amino-2-[4-(2-pyrrolidin-1-yl-ethoxy)-phenylamino]-thiazol-5-yl]-m-tolyl-methanone], for which the IC50 at human cyclin E-CDK2 is 2930 nM; at human cyclin D1-CDK4, 53 nM; in test [1], 614 nM; on human cyclin B-CDK1, 1060 nM.

For the compound `CN(C)CCOc1ccc(Nc2nc(N)c(C(=O)c3cccc(C4CC4)c3)s2)cc1` [Example 69, [4-Amino-2-[4-(2-dimethylamino-ethoxy)-phenylamino]-thiazol-5-yl]-(3-cyclopropyl-phenyl)-methanone], the half-maximal inhibitory concentration (IC50) at human cyclin E-CDK2 turned out to be 2890 nM; at human cyclin D1-CDK4, 40 nM; in test [1] it was 1050 nM; at human cyclin B-CDK1 it was 1780 nM.

For the compound `C[C@H](COc1ccc(Nc2nc(N)c(C(=O)c3cccc(F)c3)s2)cc1)N1CCCC1` [Example 41, (R)-[4-Amino-2-[4-(2-pyrrolidin-1-yl-propoxy)-phenylamino]-thiazol-5-yl]-(3-fluoro-phenyl)-methanone], the IC50 turned out to be 1040 nM on human cyclin E-CDK2, 63 nM on human cyclin D1-CDK4, 669 nM in test [1] and 435 nM at human cyclin B-CDK1.

Consider `CCCc1cc(C(=O)c2sc(Nc3ccc(OC[C@@H](C)N(C)C)cc3)nc2N)ccc1O` [Example 107, (R)-[4-Amino-2-[4-(2-dimethylamino-propoxy)-phenylamino]-thiazol-5-yl]-(4-hydroxy-3-propyl-phenyl)-methanone; Compound With Acetic Acid], for which the IC50 on human cyclin E-CDK2 turned out to be 213 nM; at human cyclin D1-CDK4, 26 nM; in test [1], 491 nM; at human cyclin B-CDK1, 240 nM.
